Where two headings read alike, the source gives them in different places.
Assays:
[1] = Cytotoxicity in HeLa cells without addition of OC43 virus (in parallel); settings: human, HeLa cells, without OC43 virus
in vitro = settings: human
SARS-Cov-2 3CLpro = SARS-Cov-2 3CLpro (Severe acute respiratory syndrome coronavirus 2, UniProt P0DTD1); assay: biochemical; settings: Table A, class symbols, read-out: SARS-Cov-2 (IC50)
[2] = tested on: SARS-CoV-2 B.1.1.7 lineage; assay: microbe, parasite or virus in culture; format: cell-based; settings: Severe acute respiratory syndrome coronavirus 2; Table C; SARS-CoV-2 B.1.1.7 in A549-dual_ACE2_TMPRSS2 cells, class symbols; read-out: A549-dual_ACE2_TMPRSS2 (EC50)
[3] = tested on: human beta-coronavirus OC43; assay: OC43 Coronavirus Assay in HeLa cells (antiviral, cytopathic effect, cell-titer-glo); format: cell-based; settings: Betacoronavirus 1, OC43, HeLa, Table B, OC43 coronavirus in HeLa cells, read-out: EC50

Compound	CC50 at 6 days [1] [µM]	CC50 (in vitro) [µM]	IC50 (SARS-Cov-2 3CLpro) [µM]	EC50 [2] [µM]	EC50 ([3]; class symbols) [µM]	EC50 ([3]; cells given as a bound) [µM]
CN(C(=O)[C@H](CC1CC1)NC(=O)C(F)(F)F)[C@@H](CC1CC1)C(=O)N1C[C@@]2(C[C@H]1C#N)CC1(CC1)NC2=O [Compound 60]	> 10	> 1	< 0.02	< 0.1	< 0.1	–
C[C@H](NC(=O)C(F)(F)F)C(=O)N(C)[C@@H](CC(C)(C)F)C(=O)N1C[C@@]2(C[C@H]1C#N)Oc1cc(F)cc(F)c1NC2=O [Compound 61]	> 10	> 1	< 0.02	0.1 to 1	1 to 10	–
C[C@H](NC(=O)C(F)(F)F)C(=O)N(C)[C@@H](CC(C)(C)C)C(=O)N1C[C@@]2(C[C@H]1C#N)Oc1cc(F)cc(F)c1NC2=O [Compound 62]	> 10	> 1	< 0.02	0.1 to 1	0.1 to 1	–
CC(C)C[C@H](NC(=O)C(F)(F)F)C(=O)N(C)[C@@H](CC(C)C)C(=O)N1C[C@@]2(C[C@H]1C#N)Oc1cc(F)cc(F)c1NC2=O [Compound 63]	> 10	> 1	< 0.02	0.1 to 1	0.1 to 1	–
CC(C)C[C@@H](C(=O)N1C[C@@]2(C[C@H]1C#N)Oc1cc(F)cc(F)c1NC2=O)N(C)C(=O)[C@H](CC(C)(C)F)NC(=O)C(F)(F)F [Compound 64]	> 10	> 1	< 0.02	0.1 to 1	< 0.1	–
CC(C)C[C@@H](C(=O)N1C[C@@]2(C[C@H]1C#N)Oc1cccnc1NC2=O)N(C)C(=O)[C@H](C)NC(=O)C(F)(F)F [Compound 65]	> 10	> 1	< 0.02	0.1 to 1	0.1 to 1	–
CN(C(=O)[C@H](CC1CC1)NC(=O)C(F)(F)F)[C@@H](CC1CC1)C(=O)N1C[C@@]2(C[C@H]1C#N)Oc1cccnc1NC2=O [Compound 66]	> 10	> 1	< 0.02	< 0.1	< 0.1	–
CN(C(=O)[C@H](CC1CC1)NC(=O)C(F)(F)F)[C@@H](CC1CC1)C(=O)N1C[C@@]2(C[C@H]1C#N)Oc1cc(F)cnc1NC2=O [Compound 67]	> 10	> 1	< 0.02	0.1 to 1	< 0.1	–
CC(C)C[C@@H](C(=O)N1C[C@@]2(C[C@H]1C#N)Oc1cc(F)cc(F)c1NC2=O)N(C)C(=O)[C@H](Cc1ccc(F)cc1)NC(=O)C(F)(F)F [Compound 69]	> 10	> 1	< 0.02	0.1 to 1	–	> 10
COC(=O)N[C@@H](C)C(=O)N(C)[C@@H](CC(C)C)C(=O)N1C[C@@]2(C[C@H]1C#N)Oc1cc(F)cc(F)c1NC2=O [Compound 70]	> 10	> 1	< 0.02	0.1 to 1	–	> 10
CC(C)C[C@@H](C(=O)N1C[C@@]2(C[C@H]1C#N)Oc1cc(F)cc(F)c1NC2=O)N(C)C(=O)[C@H](C)NC(=O)C1(F)CC1 [Compound 71]	> 10	> 1	< 0.02	0.1 to 1	0.1 to 1	–
COC[C@H](NC(=O)C(F)(F)F)C(=O)N(C)[C@@H](CC(C)C)C(=O)N1C[C@@]2(C[C@H]1C#N)Oc1cc(F)cc(F)c1NC2=O [Compound 72]	> 10	> 1	< 0.02	0.1 to 1	0.1 to 1	–
CN(C(=O)[C@H](CC1CC1)NC(=O)C(F)(F)F)[C@@H](CC1CC1)C(=O)N1C[C@@]2(C[C@H]1C#N)Oc1cnccc1NC2=O [Compound 73]	> 10	> 1	0.02 to 0.2	0.1 to 1	0.1 to 1	–
CN(C(=O)c1cc2c(F)cc(F)c(F)c2[nH]1)[C@@H](CC1CC1)C(=O)N1C[C@@]2(C[C@H]1C#N)Oc1cc(F)cc(F)c1NC2=O [Compound 74]	> 10	> 1	0.02 to 0.2	0.1 to 1	–	> 10
CN(C(=O)[C@H](CC1CC1)NC(=O)C(F)(F)F)[C@@H](CC1CC1)C(=O)N1C[C@@]2(C[C@H]1C#N)Oc1ccccc1CNC2=O [Compound 81, (S)—N—((S)-1-((2R,5'S)-5′-cyano-3-oxo-4,5-dihydro-3H-spiro[benzo[f][1,4]oxazepine-2,3′-pyrrolidin]-1′-yl)-3-cyclopropyl-1-oxopropan-2-yl)-3-cyclopropyl-N-methyl-2-(2,2,2-trifluoroacetamido)propenamide]	> 10	> 1	< 0.02	< 0.1	< 0.1	–

From patent US20240199647A1, “ANTI-VIRAL COMPOUNDS” (Aligos Therapeutics, Inc., priority 2022, published 2024)
